Reference: BigSolDB 2.1

O=C1OC[C@H]2[C@@H]1N(Cc1ccccc1)C(=O)N2Cc1ccccc1
Conditions	solubility (mole fraction)
in DMF, 293.15 K	0.15
in DMF, 298.15 K	0.163
in DMF, 303.15 K	0.179
in DMF, 308.15 K	0.196
in DMF, 312.65 K	0.211
in DMF, 316.05 K	0.224
in DMF, 320.35 K	0.242
in THF, 293.35 K	0.074
in THF, 298.15 K	0.0845
in THF, 303.15 K	0.0971
in THF, 308.15 K	0.111
in THF, 313.05 K	0.126
in THF, 318.15 K	0.142
in THF, 323.25 K	0.165
in dichloromethane, 293.25 K	0.121
in dichloromethane, 296.45 K	0.127
in dichloromethane, 299.35 K	0.132
in dichloromethane, 302.25 K	0.138
in dichloromethane, 305.45 K	0.144
in dichloromethane, 308.15 K	0.149
in dichloromethane, 311.35 K	0.155
in ethyl acetate, 293.65 K	0.0221
in ethyl acetate, 298.35 K	0.0271
in ethyl acetate, 304.15 K	0.0332
in ethyl acetate, 308.25 K	0.0391
in ethyl acetate, 314.15 K	0.0487
in ethyl acetate, 318.15 K	0.0576
in ethyl acetate, 323.75 K	0.0716
in methanol, 287.15 K	0.0034
in methanol, 293.15 K	0.0049
in methanol, 298.15 K	0.0067
in methanol, 303.25 K	0.0088
in methanol, 308.05 K	0.0119
in methanol, 313.45 K	0.016
in methanol, 318.15 K	0.0211
in toluene, 291.15 K	0.0073
in toluene, 298.15 K	0.0101
in toluene, 303.05 K	0.0125
in toluene, 308.65 K	0.0157
in toluene, 313.25 K	0.0197
in toluene, 317.95 K	0.0242
in toluene, 323.75 K	0.0316
